Results as given in patent publication US20130192322A1, “Plant Fertilizers Derived from Organic Nitrogen and Phosphorus Sources” (priority 2011, published 2013).

System: Tomato (var. Pink Girl)
Test: Example 4: effect of enzymatically hydrolyzed protein and phytic acid on tomato growth in greenhouse mix
Assay type: in vivo
Procedure: Tomato (var. Pink Girl) were grown in a greenhouse mix (⅓ each of components, soil, peat moss and vermiculite). The treatments were arranged in randomized design with 3 replicates for each treatment. Seedlings were harvested and tops weighed forty six days after planting. Treatments included additions of phytic acid and protein hydrolyzate separately and in combination at different concentrations and applied to the soil and as foliar. First application, made two weeks after planting, was both as a foliar and to the soil (50 ml/plant). The second application, made two weeks following the first,) was both to soil (80 ml/plant) and as a foliar.

## O=P(O)(O)O[C@H]1[C@H](OP(=O)(O)O)[C@@H](OP(=O)(O)O)[C@H](OP(=O)(O)O)[C@@H](OP(=O)(O)O)[C@H]1OP(=O)(O)O [Phytic Acid, phytic acid]
0.04% P2O5, Foliar
  % of control: 109%
  Av. Top fresh wt. of plants: 27.0 gm
0.04% P2O5, Soil application
  % of control: 109%
  Av. Top fresh wt. of plants: 27.0 gm
0.1% P2O5, Foliar
  % of control: 107%
  Av. Top fresh wt. of plants: 26.3 gm
0.1% P2O5, Soil application
  % of control: 128%
  Av. Top fresh wt. of plants: 31.5 gm
